Conditions: 99.6 kPa, Liquid; for viscosity: Capillary tube (Ostwald / Ubbelohde) method; for mass density: Vibrating tube method

CNC(C)=O [N-methylacetamide]
Conditions	mass density [kg/m3]	viscosity [mPa·s]
308.15 K	946.01	3.57
313.15 K	941.81	3.152
318.15 K	937.59	2.8
323.15 K	933.36	2.496
328.15 K	929.17	2.245

Source: the NIST ThermoML archive (doi:10.1021/acs.jced.8b00399)
